In ChEMBL document CHEMBL4196076, “An access to a library of novel triterpene derivatives with a promising pharmacological potential by Ugi and Passerini multicomponent reactions” (Eur J Med Chem, 2018):

Assays:
[1] = test system: A2780; assay: Cytotoxicity against human A2780 cells after 96 hrs by sulforhodamine-B assay; type: functional, cell-based; details: A2780, 96 h
[2] = test system: MCF7; assay: Cytotoxicity against human MCF7 cells after 96 hrs by sulforhodamine-B assay; type: functional, cell-based; details: MCF7, 96 h
[3] = test system: NIH3T3; assay: Cytotoxicity against mouse NIH/3T3 cells after 96 hrs by sulforhodamine-B assay; type: cell-based; details: NIH3T3, 96 h
[4] = test system: FaDu; assay: Cytotoxicity against human FADU cells after 96 hrs by sulforhodamine-B assay; type: functional, cell-based
[5] = test system: HT-29; assay: Cytotoxicity against human HT-29 cells after 96 hrs by sulforhodamine-B assay; type: functional, cell-based; details: HT-29, 96 h
[6] = test system: 518A2; assay: Cytotoxicity against human 518A2 cells after 96 hrs by sulforhodamine-B assay; type: functional, cell-based; details: 518A2, 96 h
[7] = test system: A549; assay: Cytotoxicity against human A549 cells after 96 hrs by sulforhodamine-B assay; type: functional, cell-based; details: A549, 96 h

| Structure (SMILES) | EC50 [1] | EC50 [2] | EC50 [3] | EC50 [4] | EC50 [5] | EC50 [6] | EC50 [7] |
| --- | --- | --- | --- | --- | --- | --- | --- |
| CCCCNC(=O)CN(Cc1ccccc1)C(=O)[C@]12CCC(C)(C)C[C@H]1C1=CC[C@@H]3[C@@]4(C)CC[C@H](O)C(C)(C)[C@@H]4CC[C@@]3(C)[C@]1(C)CC2 | > 30 µM | > 30 µM | > 30 µM | > 30 µM | > 30 µM | > 30 µM | – |
| CN(CC(=O)NC(C)(C)C)C(=O)[C@]12CCC(C)(C)C[C@H]1C1=CC[C@@H]3[C@@]4(C)CC[C@H](O)C(C)(C)[C@@H]4CC[C@@]3(C)[C@]1(C)CC2 | 11 µM | 12.2 µM | 11.2 µM | 8.1 µM | 13.8 µM | 7.9 µM | 8.6 µM |
| CC(=O)O[C@H]1CC[C@]2(C)[C@H]3CC=C4[C@@H]5CC(C)(C)CC[C@]5(C(=O)N(CC(=O)NC(C)(C)C)Cc5ccoc5)CC[C@@]4(C)[C@]3(C)CC[C@H]2C1(C)C | 7.1 µM | 19.8 µM | > 30 µM | 29.1 µM | > 30 µM | 24.7 µM | 24.2 µM |
| C=CCN(CC(=O)NCc1ccccc1)C(=O)[C@]12CCC(C)(C)C[C@H]1C1=CC[C@@H]3[C@@]4(C)CC[C@H](OC(C)=O)C(C)(C)[C@@H]4CC[C@@]3(C)[C@]1(C)CC2 | 6 µM | 19.2 µM | > 30 µM | 15.5 µM | > 30 µM | 18.9 µM | – |
| C=CCN(CC(=O)NCCCC)C(=O)[C@]12CCC(C)(C)C[C@H]1C1=CC[C@@H]3[C@@]4(C)CC[C@H](O)C(C)(C)[C@@H]4CC[C@@]3(C)[C@]1(C)CC2 | 19.3 µM | 21.3 µM | > 30 µM | > 30 µM | > 30 µM | > 30 µM | – |
| CC1(C)CC[C@]2(C(=O)N(CC(=O)NC(C)(C)C)Cc3ccoc3)CC[C@]3(C)C(=CC[C@@H]4[C@@]5(C)CC[C@H](O)C(C)(C)[C@@H]5CC[C@]43C)[C@@H]2C1 | 10 µM | 4.1 µM | 11.8 µM | 17.4 µM | 6.7 µM | 13.9 µM | 18.9 µM |
| C=CCN(CC(=O)NCc1ccccc1)C(=O)[C@]12CCC(C)(C)C[C@H]1C1=CC[C@@H]3[C@@]4(C)CC[C@H](O)C(C)(C)[C@@H]4CC[C@@]3(C)[C@]1(C)CC2 | 12.9 µM | > 30 µM | > 30 µM | > 30 µM | > 30 µM | > 30 µM | > 30 µM |
| CC(C)N(CC(=O)NCc1ccccc1)C(=O)[C@]12CCC(C)(C)C[C@H]1C1=CC[C@@H]3[C@@]4(C)CC[C@H](O)C(C)(C)[C@@H]4CC[C@@]3(C)[C@]1(C)CC2 | 15.4 µM | 19.4 µM | > 30 µM | > 30 µM | > 30 µM | > 30 µM | – |
| CC(=O)O[C@H]1CC[C@]2(C)[C@H]3CC=C4[C@@H]5CC(C)(C)CC[C@]5(C(=O)N(C)CC(=O)NC(C)(C)C)CC[C@@]4(C)[C@]3(C)CC[C@H]2C1(C)C | 4.1 µM | 5.7 µM | 9.9 µM | 6.7 µM | 23.7 µM | 8.8 µM | – |
| CC1(C)CC[C@]2(C(=O)N(CC(=O)NC(C)(C)C)Cc3cccc(F)c3)CC[C@]3(C)C(=CC[C@@H]4[C@@]5(C)CC[C@H](O)C(C)(C)[C@@H]5CC[C@]43C)[C@@H]2C1 | > 30 µM | > 30 µM | > 30 µM | > 30 µM | > 30 µM | > 30 µM | – |
| CCCCNC(=O)CN(Cc1ccoc1)C(=O)[C@]12CCC(C)(C)C[C@H]1C1=CC[C@@H]3[C@@]4(C)CC[C@H](O)C(C)(C)[C@@H]4CC[C@@]3(C)[C@]1(C)CC2 | 17.6 µM | 15.5 µM | > 30 µM | > 30 µM | 15.9 µM | > 30 µM | – |
| CC1(C)CC[C@]2(C(=O)N(CC(=O)NC(C)(C)C)Cc3ccccc3)CC[C@]3(C)C(=CC[C@@H]4[C@@]5(C)CC[C@H](O)C(C)(C)[C@@H]5CC[C@]43C)[C@@H]2C1 | 13.5 µM | 14.8 µM | 8.8 µM | 17.8 µM | 11.5 µM | 11.4 µM | – |
| CC1(C)CC[C@]2(C(=O)O)CC[C@]3(C)C(=CC[C@@H]4[C@@]5(C)C[C@@H](O)[C@H](O)C(C)(C)[C@@H]5CC[C@]43C)[C@@H]2C1 [MASLINIC ACID] | – | 37.2 µM | – | 17 µM | – | – | – |
| CCCCN(CC(=O)NCc1ccccc1)C(=O)[C@]12CCC(C)(C)C[C@H]1C1=CC[C@@H]3[C@@]4(C)CC[C@H](O)C(C)(C)[C@@H]4CC[C@@]3(C)[C@]1(C)CC2 | > 30 µM | 24.6 µM | > 30 µM | > 30 µM | 15.6 µM | > 30 µM | – |
